Assays:
[1] = tested on: diamondback moth (Plutella xylostella); test: Insecticidal effect on diamondback moth (Test Example 1); type: in vivo; details: for Insecticidal effect (Test Example 1), judged from mortality / Insecticidal effect, Test Example 1: diamondback moth; for Insecticidal effect (Test Example 1), judged from mortality: judged by the criterion of Test Example 1; for Insecticidal effect on diamondback moth (Test Example 1), judged grade: mortality judged according to the criterion shown in Test Example 1
Procedure, shortened: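 Triplicate groups of 10 insects were scored: six days after immersion of oviposited Chinese cabbage seedlings and holding at 25 °C post air-drying, hatched larvae were counted. Mortality derived from these counts and insecticidal effect judged by a set criterion.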

[2] = tested on: common cutworm (Spodoptera Litura); test: Insecticidal effect on common cutworm (Test Example 2); type: in vivo; details: 500 ppm, 25° C.; for Insecticidal effect (Test Example 2), judged from mortality / Insecticidal effect on common cutworm (Test Example 2), judged grade: cabbage leaf dip; for Insecticidal effect (Test Example 2), judged from mortality: 8 days after inoculation; for Insecticidal effect, Test Example 2: cabbage leaf immersed; for Insecticidal effect, Test Example 2 / Insecticidal effect on common cutworm (Test Example 2), judged grade: eight days after inoculation; for Insecticidal effect on common cutworm (Test Example 2), judged grade: second-instar larvae
Procedure, shortened: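 Insecticidal effect was rated from percent mortality of second-instar larvae exposed to air-dried treatment at 25° C for 8 days.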

[3] = second-instar larvae of common cutworm
[4] = mortality judged by criterion of Test Example 1
[5] = common cutworm second-instar larvae
[6] = judged by the mortality criterion of Test Example 1

Cc1cc(C(F)(F)C(F)(F)F)ccc1NC(=O)c1cccc(I)c1C(=O)N[C@H](C)CBr [compound 1607]
Insecticidal effect (Test Example 1), judged from mortality [1]: A (100)
Insecticidal effect (Test Example 2), judged from mortality [2, 3]: A (100)

Cc1cc(C(F)(C(F)(F)F)C(F)(F)F)ccc1NC(=O)c1cccc(OC(F)(F)F)c1C(=O)NC(C)(C)C [compound 1237]
Insecticidal effect, Test Example 1 [1, 4]: A (100)
Insecticidal effect, Test Example 2 [2, 5]: A (100)

CCN(CC)C(=O)c1c(I)cccc1C(=O)Nc1ccc(-c2ccc(C(F)(F)F)cc2)cc1C [compound 1619]
Insecticidal effect (Test Example 1), judged from mortality [1]: A (100)
Insecticidal effect (Test Example 2), judged from mortality [2, 3]: A (100)

CCN(CC)C(=O)c1c(C(=O)Nc2ccc(C(F)(F)C(F)(F)F)cc2C)ccc(F)c1Cl [compound 1258]
Insecticidal effect, Test Example 1 [1, 4]: A (100)
Insecticidal effect, Test Example 2 [2, 5]: A (100)

COc1ccc(NC(=O)c2c(I)cccc2C(=O)NC(C)C)c(C)c1C [compound 451]
Insecticidal effect on diamondback moth (Test Example 1), judged grade [1]: A (100)
Insecticidal effect on common cutworm (Test Example 2), judged grade [2]: A (100)

Cc1c(NC(=O)c2cccc([N+](=O)[O-])c2C(=O)NC(C)C)ccc([N+](=O)[O-])c1C [compound 709]
Insecticidal effect on diamondback moth (Test Example 1), judged grade [1]: A (100)
Insecticidal effect on common cutworm (Test Example 2), judged grade [2]: A (100)

CC(C)NC(=O)c1c(I)cccc1C(=O)Nc1ccc(C(F)(C(F)(F)F)C(F)(F)F)c(F)c1 [compound 1695]
Insecticidal effect (Test Example 1), judged from mortality [1]: A (100)
Insecticidal effect (Test Example 2), judged from mortality [2, 3]: A (100)

Cc1cc(OC(F)(F)F)ccc1NC(=O)c1cccc(C(F)(F)F)c1C(=O)NC(C)C [compound 1183]
Insecticidal effect, Test Example 1 [1, 4]: A (100)
Insecticidal effect, Test Example 2 [2, 5]: A (100)

Cc1cc(OC(F)(F)C(F)OC(F)(F)F)ccc1NC(=O)c1c(Cl)cccc1C(=O)NC(C)C (centres unmarked) [compound 244]
Insecticidal effect, Test Example 1 [1, 6]: A (100)
Insecticidal effect, Test Example 2 [2, 3]: C (89-80)

CC(C)NC(=O)c1c(I)cccc1C(=O)Nc1ccc(C(F)(C(F)(F)F)C(F)(F)F)cc1Br [compound 1699]
Insecticidal effect (Test Example 1), judged from mortality [1]: A (100)
Insecticidal effect (Test Example 2), judged from mortality [2, 3]: A (100)

Cc1cc(C(F)(C(F)(F)F)C(F)(F)F)c(F)cc1NC(=O)c1cccc(I)c1C(=O)NC(C)(C)C [compound 1664]
Insecticidal effect (Test Example 1), judged from mortality [1]: A (100)
Insecticidal effect (Test Example 2), judged from mortality [2, 3]: A (100)

Cc1cc(Oc2ccc(C(F)(F)F)cn2)ccc1NC(=O)c1c(I)cccc1C(=O)NC(C)C [compound 460]
Insecticidal effect on diamondback moth (Test Example 1), judged grade [1]: A (100)
Insecticidal effect on common cutworm (Test Example 2), judged grade [2]: B (99-90)

Cc1cc(C(F)(C(F)(F)F)C(F)(F)F)ccc1NC(=O)c1cccc(OC(F)(F)F)c1C(=O)NC(C)C [compound 1236]
Insecticidal effect, Test Example 1 [1, 4]: A (100)
Insecticidal effect, Test Example 2 [2, 5]: A (100)

Cc1c(NC(=O)c2cccc(I)c2C(=O)NC(C)C)ccc(C(F)(C(F)(F)F)C(F)(F)F)c1C [compound 1689]
Insecticidal effect (Test Example 1), judged from mortality [1]: A (100)
Insecticidal effect (Test Example 2), judged from mortality [2, 3]: A (100)

Cc1c(NC(=O)c2cccc(I)c2C(=O)NC(C)C)ccc(C(F)(F)C(F)(F)F)c1C [compound 1612]
Insecticidal effect (Test Example 1), judged from mortality [1]: A (100)
Insecticidal effect (Test Example 2), judged from mortality [2, 3]: A (100)

Cc1ccc(Cl)cc1NC(=O)c1cccc([N+](=O)[O-])c1C(=O)NCC(C)C [compound 831]
Insecticidal effect on diamondback moth (Test Example 1), judged grade [1]: D (79-50)
Insecticidal effect on common cutworm (Test Example 2), judged grade [2]: D (79-50)

CC(C)NC(=O)c1c(C(=O)Nc2ccc(Cl)cc2Cl)cccc1[N+](=O)[O-] [compound 633]
Insecticidal effect on diamondback moth (Test Example 1), judged grade [1]: A (100)
Insecticidal effect on common cutworm (Test Example 2), judged grade [2]: D (79-50)

CC(C)NC(=O)c1c(I)cccc1C(=O)Nc1cc2c(cc1Br)OC(F)(F)C(F)O2 (centres unmarked) [compound 1684]
Insecticidal effect (Test Example 1), judged from mortality [1]: A (100)
Insecticidal effect (Test Example 2), judged from mortality [2, 3]: A (100)

Cc1cc2c(cc1NC(=O)c1cccc(I)c1C(=O)NC(C)C)OC(F)(F)C2(F)F [compound 1666]
Insecticidal effect (Test Example 1), judged from mortality [1]: A (100)
Insecticidal effect (Test Example 2), judged from mortality [2, 3]: A (100)

CC(C)NC(=O)c1c(I)cccc1C(=O)Nc1cc2c(cc1I)OC(F)(F)O2 [compound 1660]
Insecticidal effect (Test Example 1), judged from mortality [1]: A (100)
Insecticidal effect (Test Example 2), judged from mortality [2, 3]: A (100)

Cc1cc([N+](=O)[O-])ccc1NC(=O)c1cccc([N+](=O)[O-])c1C(=O)NC(C)C [compound 706]
Insecticidal effect on diamondback moth (Test Example 1), judged grade [1]: A (100)
Insecticidal effect on common cutworm (Test Example 2), judged grade [2]: A (100)

CCOc1cc(C(F)(C(F)(F)F)C(F)(F)F)ccc1NC(=O)c1cccc(I)c1C(=O)NC(C)C [compound 1693]
Insecticidal effect (Test Example 1), judged from mortality [1]: A (100)
Insecticidal effect (Test Example 2), judged from mortality [2, 3]: A (100)

COc1ccc(NC(=O)c2c(Br)cccc2C(=O)NC(C)C)c(C)c1C [compound 321]
Insecticidal effect, Test Example 1 [1, 6]: A (100)
Insecticidal effect, Test Example 2 [2, 3]: A (100)

Cc1cc2c(cc1NC(=O)c1cccc(I)c1C(=O)NC(C)C)OC(F)(F)C(F)O2 (racemic) [compound 1598]
Insecticidal effect (Test Example 1), judged from mortality [1]: A (100)
Insecticidal effect (Test Example 2), judged from mortality [2, 3]: A (100)

CSc1cc(C(F)(C(F)(F)F)C(F)(F)F)ccc1NC(=O)c1cccc(I)c1C(=O)NC(C)C [compound 1671]
Insecticidal effect (Test Example 1), judged from mortality [1]: A (100)
Insecticidal effect (Test Example 2), judged from mortality [2, 3]: A (100)

CC(C)NC(=O)c1c(C(=O)Nc2c(Cl)cccc2Cl)cccc1[N+](=O)[O-] [compound 635]
Insecticidal effect on diamondback moth (Test Example 1), judged grade [1]: A (100)
Insecticidal effect on common cutworm (Test Example 2), judged grade [2]: D (79-50)

Cc1cc(OCC(F)(F)C(F)F)ccc1NC(=O)c1cccc(Cl)c1C(=O)NC(C)C [compound 147]
Insecticidal effect, Test Example 1 [1, 6]: A (100)
Insecticidal effect, Test Example 2 [2, 3]: C (89-80)

Cc1ccccc1NC(=O)c1cc(Cl)ccc1C(=O)NC(C)C [compound 183]
Insecticidal effect, Test Example 1 [1, 6]: A (100)
Insecticidal effect, Test Example 2 [2, 3]: B (99-90)

Cc1cc(Cl)ccc1NC(=O)c1cccc([N+](=O)[O-])c1C(=O)NC(C)C [compound 664, 3-nitro-N^1-(4-chloro-2-methylphenyl)-N^2-isopropyl-phthalic acid diamide]
Insecticidal effect on diamondback moth (Test Example 1), judged grade [1]: A (100)
Insecticidal effect on common cutworm (Test Example 2), judged grade [2]: A (100)

Cc1ccc(NC(=O)c2c(I)cccc2C(=O)NC(C)C)c(C)c1Cl [compound 429]
Insecticidal effect, Test Example 1 [1, 6]: A (100)
Insecticidal effect, Test Example 2 [2, 3]: D (79-50)

Cc1cc(Oc2c(F)c(F)c(F)c(F)c2F)ccc1NC(=O)c1c(Cl)cccc1C(=O)NC(C)C [compound 248]
Insecticidal effect, Test Example 1 [1, 6]: A (100)
Insecticidal effect, Test Example 2 [2, 3]: C (89-80)

CC(C)NC(=O)c1cc(Cl)ccc1C(=O)Nc1ccc(F)cc1 [compound 169]
Insecticidal effect, Test Example 1 [1, 6]: A (100)
Insecticidal effect, Test Example 2 [2, 3]: D (79-50)

Cc1c(NC(=O)c2cccc(I)c2C(=O)NC(C)(C)C)ccc(C(F)(C(F)(F)F)C(F)(F)F)c1C [compound 1690]
Insecticidal effect (Test Example 1), judged from mortality [1]: A (100)
Insecticidal effect (Test Example 2), judged from mortality [2, 3]: A (100)

CC(C)NC(=O)c1c(Cl)cccc1C(=O)Nc1cc2c(cc1F)OC(F)(F)O2 [compound 1594]
Insecticidal effect (Test Example 1), judged from mortality [1]: A (100)
Insecticidal effect (Test Example 2), judged from mortality [2, 3]: A (100)

CC(C)NC(=O)c1c(C(=O)Nc2ccc(Cl)c(Cl)c2Cl)cccc1[N+](=O)[O-] [compound 644]
Insecticidal effect on diamondback moth (Test Example 1), judged grade [1]: A (100)
Insecticidal effect on common cutworm (Test Example 2), judged grade [2]: A (100)

Cc1c(NC(=O)c2cccc(I)c2C(=O)NC(C)(C)C)ccc(C(F)(F)C(F)(F)F)c1C [compound 1613]
Insecticidal effect (Test Example 1), judged from mortality [1]: A (100)
Insecticidal effect (Test Example 2), judged from mortality [2, 3]: A (100)

CC(C)(C)NC(=O)c1c(I)cccc1C(=O)Nc1ccc(C(F)(C(F)(F)F)C(F)(F)F)c(F)c1 [compound 1696]
Insecticidal effect (Test Example 1), judged from mortality [1]: A (100)
Insecticidal effect (Test Example 2), judged from mortality [2, 3]: A (100)

Cc1cc(OC(F)(F)F)ccc1NC(=O)c1cccc(OC(F)(F)F)c1C(=O)NC(C)(C)C [compound 1234]
Insecticidal effect, Test Example 1 [1, 4]: A (100)
Insecticidal effect, Test Example 2 [2, 5]: A (100)

CC(C)(C)NC(=O)c1c(I)cccc1C(=O)Nc1ccc(OC(F)(F)F)cc1F [compound 1189]
Insecticidal effect, Test Example 1 [1, 4]: A (100)
Insecticidal effect, Test Example 2 [2, 5]: A (100)

CNC(=O)c1ccccc1C(=O)Nc1ccc(C(F)(F)F)cc1 [compound 2]
Insecticidal effect, Test Example 1 [1, 6]: A (100)
Insecticidal effect, Test Example 2 [2, 3]: C (89-80)

CC(C)NC(=O)c1c(I)cccc1C(=O)Nc1ccc(C(F)(C(F)(F)F)C(F)(F)F)c(Cl)c1 [compound 1697]
Insecticidal effect (Test Example 1), judged from mortality [1]: A (100)
Insecticidal effect (Test Example 2), judged from mortality [2, 3]: A (100)

Cc1cc(C(F)(C(F)(F)F)C(F)(F)F)c(F)cc1NC(=O)c1cccc(I)c1C(=O)NC(C)C [compound 1663]
Insecticidal effect (Test Example 1), judged from mortality [1]: A (100)
Insecticidal effect (Test Example 2), judged from mortality [2, 3]: A (100)

CC(C)NC(=O)c1c(I)cccc1C(=O)Nc1ccc(C(F)(F)C(F)(F)F)c(Cl)c1 [compound 1608]
Insecticidal effect (Test Example 1), judged from mortality [1]: A (100)
Insecticidal effect (Test Example 2), judged from mortality [2, 3]: A (100)

Reference: patent US6362369B1, “Phthalic acid diamide derivatives fluorine-containing aniline compounds as starting material, agricultural and horticultural insecticides, and a method for application of the insecticides” (Nihon Nohyaku Co., Ltd., priority 1997, dated 2002)
